According to patent publication US4771057A, “Reduced pyridyl derivatives with cardiovascular regulating properties” (University of Alberta, priority 1986, dated 1988):
Read-outs that look alike come from different tables or passages of the source.

Target: guinea pig ileal longitudinal smooth muscle
Test: Calcium channel antagonist testing: inhibition of muscarinic receptor-mediated Ca2+-dependent contraction (response to CD) of guinea pig ileal longitudinal smooth muscle
Format: cell-based
Conditions: for IC50: 50% inhibition of tonic contraction to CD 5×10^-7 M, compound added 10 min before CD, 37° C., pH 7.4, read-out: Calcium channel antagonist act., inhib. act. on contractile response to CD, ID50; for calcium channel antagonist activity, comparison to Nifedipine (TM): conclusion from Table 7
Procedure: Male albino guinea pigs (body weight 300-450 g) were sacrificed by decapitation. The intestine was removed above the ileo-caecal junction. Longitudinal smooth muscle segments of 2 cm length were mounted under a resting tension of 300-400 mg. […] The muscles were equilibrated for 1 h with a solution change every 15 min. Two successive control contractions were elicited at 15 min intervals with 5×10^-7 M cis-2-methyl- 4-dimethylaminomethyl-1,3-dioxolane methiodide (CD). The isometric contractions were recorded with a force displacement transducer (FT 03C) on a GRASS physiograph. The means of the two contractile responses was taken as the 100% value for the tonic (slow) component of the response. The muscle was washed with Hepes saline solution and was allowed to re-equilibrate. The calcium antagonist (test compound) was added ten min before the dose-response for CD was determined. The drug-induced inhibition of contraction was expressed as percent of control. The ID50 values were graphically determined from the concentration-response curves.

IC50 [µM] | IC50 (Cavia porcellus) [µM] | Compound | calcium channel antagonist activity, comparison to Nifedipine (TM)
34 |  | 3,5-Dicyano-2,6-dimethyl-4-{3'-[N--methoxycarbonyl-1',2'-(1',6'-)dihydropyridyl]}-1,4-dihydropyridine [Compound D-48] | 
0.031 |  | 3-Isobutyl-5-methyl 2,6-dimethyl-4-{3'-[N--methoxycarbonyl-1',2'-(1',6'-)dihydropyridyl]}-1,4-dihydropyridine-3,5-dicarboxylate [Compound D-43] | active calcium channel antagonists, being comparable to Nifedipine (TM)
0.045 |  | 3-Isobutyl-5-methyl 2,6-dimethyl-4-{3'-[N--phenoxycarbonyl-1',2'-(1',6'-)dihydropyridyl]}-1,4-dihydropyridine-3,5-dicarboxylate [Compound D-44] | active calcium channel antagonists, being comparable to Nifedipine (TM)
52 |  | 3-Methyl 5-cyano-2,6-dimethyl-4-{3'-[N--methoxycarbonyl-1',2'-(1',6'-)dihydropyridyl]}-1,4-dihydropyridine-3-carboxylate [Compound D-46] | 
 | 2.32 | COC(=O)C1=C(C)NC(C)=C(C(=O)OC)C1c1ccccn1 [Compound D-1, 3,5-dimethyl 2,6-dimethyl-4-(2'-pyridyl)-1,4-dihydropyridine-3,5-dicarboxylate] | 
 | 0.0956 | COC(=O)C1=C(C)NC(C)=C(C(=O)OC(C)C)C1c1ccccn1 [Compound D-2, 3-Isopropyl-5-methyl 2,6-dimethyl-4-(2'-pyridyl)-1,4-dihydropyridine-3,5-dicarboxylate] | active calcium channel antagonists, being comparable to Nifedipine (TM)
 | 0.041 | COC(=O)C1=C(C)NC(C)=C(C(=O)OCC(C)C)C1c1ccccn1 [Compound D-3, 3-Isobutyl-5-methyl 2,6-dimethyl-4-(2'-pyridyl)-1,4-dihydropyridine-3,5-dicarboxylate] | active calcium channel antagonists, being comparable to Nifedipine (TM)
 | 43.6 | COC(=O)C1=C(C)NC(C)=C(C(=O)OCCN(C)C)C1c1ccccn1 [Compound D-4, 3-[2-(N,N--dimethylamino)ethyl]-5-methyl 2,6-dimethyl-4-(2'-pyridyl)-1,4-dihydropyridine-3,5-dicarboxylate] | 
 | 3.83 | COC(=O)C1=C(C)NC(C)=C(C(=O)OC)C1c1cccnc1 [Compound D-5, 3,5-Dimethyl 2,6-dimethyl-4-(3'-pyridyl)-1,4-dihydropyridine-3,5-dicarboxylate] | 
 | 0.097 | COC(=O)C1=C(C)NC(C)=C(C(=O)OC(C)C)C1c1cccnc1 [Compound D-6, 3-Isopropyl-5-methyl 2,6-dimethyl-4-(3'-pyridyl)-1,4-dihydropyridine-3,5-dicarboxylate] | active calcium channel antagonists, being comparable to Nifedipine (TM)
 | 56 | COC(=O)C1=C(C)NC(C)=C(C(=O)OCC(C)C)C1c1cccnc1 [Compound D-7, 3-Isobutyl-5-methyl 2,6-dimethyl-4-(3'-pyridyl)-1,4-dihydropyridine-3,5-dicarboxylate] | active calcium channel antagonists, being comparable to Nifedipine (TM)
 | 33.4 | COC(=O)C1=C(C)NC(C)=C(C(=O)OCCN(C)C)C1c1cccnc1 [Compound D-8, 3-[2-(N,N--dimethylamino)ethyl]-5-methyl 2,6-dimethyl-4-(3'-pyridyl)-1,4-dihydropyridine-3,5-dicarboxylate] | 
 | 5 | COC(=O)C1=C(C)NC(C)=C(C(=O)OC)C1c1ccncc1 [Compound D-9, 3,5-Dimethyl 2,6-dimethyl-4-(4'-pyridyl)-1,4-dihydropyridine-3,5-dicarboxylate] | 
 | 0.56 | COC(=O)C1=C(C)NC(C)=C(C(=O)OC(C)C)C1c1ccncc1 [Compound D-10, 3-Isopropyl-5-methyl 2,6-dimethyl-4-(4'-pyridyl)-1,4-dihydropyridine-3,5-dicarboxylate] | active calcium channel antagonists, being comparable to Nifedipine (TM)
 | 0.22 | COC(=O)C1=C(C)NC(C)=C(C(=O)OCC(C)C)C1c1ccncc1 [Compound D-11, 3-Isobutyl-5-methyl 2,6-dimethyl-4-(4'-pyridyl)-1,4-dihydropyridine-3,5-dicarboxylate] | active calcium channel antagonists, being comparable to Nifedipine (TM)
 | 51.3 | COC(=O)C1=C(C)NC(C)=C(C(=O)OCCN(C)C)C1c1ccncc1 [Compound D-12, 3-[2-(N,N--dimethylamino)ethyl] -5-methyl 2,6-dimethyl-4-(4'-pyridyl)-1,4-dihydropyridine-3,5-dicarboxylate] | 
 | 0.18 | CCOC(=O)C1=C(C)NC(C)=C(C(=O)OCC)C1c1ccccn1 [Compound D-13, 3,5-diethyl 2,6-dimethyl-4-(2'-pyridyl)-1,4-dihydropyridine-3,5-dicarboxylate] | 

IC50 [µM] | IC50 (Cavia porcellus) [µM] | Compound | calcium channel antagonist activity, comparison to Nifedipine (TM)
 | 0.125 | CC1=C(C(=O)OC(C)C)C(c2ccccn2)C(C(=O)OC(C)C)=C(C)N1 [Compound D-14, 3,5-Diisopropyl 2,6-dimethyl-4-(2'-pyridyl)-1,4-dihydropyridine-3,5-dicarboxylate] | active calcium channel antagonists, being comparable to Nifedipine (TM)
 | 0.0936 | CC1=C(C(=O)OCC(C)C)C(c2ccccn2)C(C(=O)OCC(C)C)=C(C)N1 [Compound D-15, 3,5-Diisobutyl 2,6-dimethyl-4-(2'-pyridyl)-1,4-dihydropyridine-3,5-dicarboxylate] | active calcium channel antagonists, being comparable to Nifedipine (TM)
 | 0.346 | CCOC(=O)C1=C(C)NC(C)=C(C(=O)OCC)C1c1cccnc1 [Compound D-17, 3,5-Diethyl 2,6-dimethyl-4-(3'-pyridyl)-1,4-dihydropyridine-3,5-dicarboxylate] | active calcium channel antagonists, being comparable to Nifedipine (TM)
 | 0.26 | CC1=C(C(=O)OC(C)C)C(c2cccnc2)C(C(=O)OC(C)C)=C(C)N1 [Compound D-18] | active calcium channel antagonists, being comparable to Nifedipine (TM)
 | 179 | CC1=C(C(=O)OCCN(C)C)C(c2cccnc2)C(C(=O)OCCN(C)C)=C(C)N1 [Compound D-20, 3,5-Bis-[2-(N,N--dimethylamino)ethyl]2,6-dimethyl-4-(3'pyridyl)-1,4-dihydropyridine-3,5-dicarboxylate] | 
 | 0.231 | CC1=C(C(=O)OC(C)C)C(c2ccncc2)C(C(=O)OC(C)C)=C(C)N1 [Compound D-22, 3,5-Diisopropyl 2,6-dimethyl-4-(4'-pyridyl)-1,4-dihydropyridine-3,5-dicarboxylate] | active calcium channel antagonists, being comparable to Nifedipine (TM)
 | 0.58 | CC1=C(C(=O)OCC(C)C)C(c2ccncc2)C(C(=O)OCC(C)C)=C(C)N1 [Compound D-23, 3,5-Diisobutyl 2,6-dimethyl-4-(4'-pyridyl)-1,4-dihydropyridine-3,5-dicarboxylate] | active calcium channel antagonists, being comparable to Nifedipine (TM)
 | 87.7 | COC(=O)C1=C(C)NC(C)=C(C#N)C1c1ccncc1 [Compound D-26] | 
 | 357 | CC1=C(C#N)C(c2cccnc2)C(C#N)=C(C)N1 [Compound D-27, 3,5-dicyano-2,6-dimethyl-4-(3'-pyridyl)-1,4-dihydropyridine] | 
 | 130 | CC1=C(C#N)C(c2ccncc2)C(C#N)=C(C)N1 [Compound D-28, 3,5-dicyano-2,6-dimethyl-4-(4'-pyridyl)-1,4-dihydropyridine] | 
 | 0.51 | CC1=C(C(=O)OCC(C)C)C(C2=CCN(C(=O)Oc3ccccc3)C=C2)C(C(=O)OCC(C)C)=C(C)N1 [Compound D-56, Diisobutyl 2,6-dimethyl-4-[4'-(N--phenoxycarbonyl)]-1,4-di-hydropyridine-3,5-dicarboxylate] | active calcium channel antagonists, being comparable to Nifedipine (TM)
 | 67.5 | COC(=O)N1C=CC(C2C(C#N)=C(C)NC(C)=C2C#N)=CC1 [Compound D-59, 3,5-Dicyano-2,6-dimethyl-4-[4'-(N--methoxycarbonyl)]-1,4-dihydropyridine] | 
 | 1.76 | COC(=O)C1=C(C)NC(C)=C(C(=O)OCC(C)C)C1C1=CCN(C(=O)OC)C=C1 [Compound D-60, 3-Isobutyl-5-methyl 2,6-dimethyl-4-[4'-(N--methoxycarbonyl)]-1,4-dihydropyridine-3,5-dicarboxylate] | 
 | 81 | COC(=O)C1=C(C)NC(C)=C(C(=O)OCC(C)C)C1C1=CCN(C(=O)Oc2ccccc2)C=C1 [Compound D-61, 3-Isobutyl-5-methyl 2,6-dimethyl-4-[4'-(N--phenoxycarbonyl)]-1,4-dihydropyridine-3,5-dicarboxylate] | 
 | 64.7 | COC(=O)C1=C(C)NC(C)=C(C(=O)OC)C1C1CC=CCN1C [Compound D-64] | 
 | 13 | CCOC(=O)C1=C(C)NC(C)=C(C(=O)OCC)C1C1CC=CCN1C [Compound D-65, Diethyl 2,6-dimethyl-4-[2'-(N--methyl-1',2',3',6'-tetrahydropyridyl)]-1,4-dihydropyridine-3,5-dicarboxylate] | 
